From US20250270209A1 (INTERLINE THERAPEUTICS, INC., priority 2022, published 2025)
pIC50: −log10 of the molar value.

Tests used:
[1] = biological target: T1, wild type LRRK2 overexpressed in recombinant HEK-293T cells (Homo sapiens, UniProt Q5S007); assay: pS935 LRRK2 Cell Assay (HTRF, phospho-LRRK2 Ser935); format: cell-based; conditions: LRRK2 Inhibition, Table 8, 2 hours compound incubation
T1 construct: host or cells: HEK293T (transient transfection with pCMV-LRRK2 WT plasmid)
Method in brief: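 Phospho-Ser935 LRRK2 measured by two-antibody HTRF (Eu-cryptate donor, d2 acceptor; 665/615 nm ratio) after overnight detection at 23° C. Before lysis, transiently LRRK2-transfected HEK-293T cells were exposed 2 h at 37° C to a 9-point, 3-fold series from 10 μM, with DMSO at 0.2%.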

LRRK2 wild type enzyme = LRRK2 wild type enzyme (Homo sapiens, UniProt Q5S007); assay: Biochemical Assay: LRRK2 TR-FRET (LanthaScreen) kinase assay with LRRKtide substrate; conditions: LRRK2 Inhibition, Table 8
Method in brief: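 TR-FRET detection (Tb-labelled phospho-LRRKtide antibody, EDTA stop, 30 min) followed a 120 min, 23 °C reaction of 3 nM wild-type human LRRK2 with LRRKtide (400 nM) and ATP (25 μM) in Tris pH 8.0. Compounds: 11-point 3-fold series from 10 μM, 15 min enzyme preincubation.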

LRRK2 wild type enzyme, sequence (Q5S007 whole entry): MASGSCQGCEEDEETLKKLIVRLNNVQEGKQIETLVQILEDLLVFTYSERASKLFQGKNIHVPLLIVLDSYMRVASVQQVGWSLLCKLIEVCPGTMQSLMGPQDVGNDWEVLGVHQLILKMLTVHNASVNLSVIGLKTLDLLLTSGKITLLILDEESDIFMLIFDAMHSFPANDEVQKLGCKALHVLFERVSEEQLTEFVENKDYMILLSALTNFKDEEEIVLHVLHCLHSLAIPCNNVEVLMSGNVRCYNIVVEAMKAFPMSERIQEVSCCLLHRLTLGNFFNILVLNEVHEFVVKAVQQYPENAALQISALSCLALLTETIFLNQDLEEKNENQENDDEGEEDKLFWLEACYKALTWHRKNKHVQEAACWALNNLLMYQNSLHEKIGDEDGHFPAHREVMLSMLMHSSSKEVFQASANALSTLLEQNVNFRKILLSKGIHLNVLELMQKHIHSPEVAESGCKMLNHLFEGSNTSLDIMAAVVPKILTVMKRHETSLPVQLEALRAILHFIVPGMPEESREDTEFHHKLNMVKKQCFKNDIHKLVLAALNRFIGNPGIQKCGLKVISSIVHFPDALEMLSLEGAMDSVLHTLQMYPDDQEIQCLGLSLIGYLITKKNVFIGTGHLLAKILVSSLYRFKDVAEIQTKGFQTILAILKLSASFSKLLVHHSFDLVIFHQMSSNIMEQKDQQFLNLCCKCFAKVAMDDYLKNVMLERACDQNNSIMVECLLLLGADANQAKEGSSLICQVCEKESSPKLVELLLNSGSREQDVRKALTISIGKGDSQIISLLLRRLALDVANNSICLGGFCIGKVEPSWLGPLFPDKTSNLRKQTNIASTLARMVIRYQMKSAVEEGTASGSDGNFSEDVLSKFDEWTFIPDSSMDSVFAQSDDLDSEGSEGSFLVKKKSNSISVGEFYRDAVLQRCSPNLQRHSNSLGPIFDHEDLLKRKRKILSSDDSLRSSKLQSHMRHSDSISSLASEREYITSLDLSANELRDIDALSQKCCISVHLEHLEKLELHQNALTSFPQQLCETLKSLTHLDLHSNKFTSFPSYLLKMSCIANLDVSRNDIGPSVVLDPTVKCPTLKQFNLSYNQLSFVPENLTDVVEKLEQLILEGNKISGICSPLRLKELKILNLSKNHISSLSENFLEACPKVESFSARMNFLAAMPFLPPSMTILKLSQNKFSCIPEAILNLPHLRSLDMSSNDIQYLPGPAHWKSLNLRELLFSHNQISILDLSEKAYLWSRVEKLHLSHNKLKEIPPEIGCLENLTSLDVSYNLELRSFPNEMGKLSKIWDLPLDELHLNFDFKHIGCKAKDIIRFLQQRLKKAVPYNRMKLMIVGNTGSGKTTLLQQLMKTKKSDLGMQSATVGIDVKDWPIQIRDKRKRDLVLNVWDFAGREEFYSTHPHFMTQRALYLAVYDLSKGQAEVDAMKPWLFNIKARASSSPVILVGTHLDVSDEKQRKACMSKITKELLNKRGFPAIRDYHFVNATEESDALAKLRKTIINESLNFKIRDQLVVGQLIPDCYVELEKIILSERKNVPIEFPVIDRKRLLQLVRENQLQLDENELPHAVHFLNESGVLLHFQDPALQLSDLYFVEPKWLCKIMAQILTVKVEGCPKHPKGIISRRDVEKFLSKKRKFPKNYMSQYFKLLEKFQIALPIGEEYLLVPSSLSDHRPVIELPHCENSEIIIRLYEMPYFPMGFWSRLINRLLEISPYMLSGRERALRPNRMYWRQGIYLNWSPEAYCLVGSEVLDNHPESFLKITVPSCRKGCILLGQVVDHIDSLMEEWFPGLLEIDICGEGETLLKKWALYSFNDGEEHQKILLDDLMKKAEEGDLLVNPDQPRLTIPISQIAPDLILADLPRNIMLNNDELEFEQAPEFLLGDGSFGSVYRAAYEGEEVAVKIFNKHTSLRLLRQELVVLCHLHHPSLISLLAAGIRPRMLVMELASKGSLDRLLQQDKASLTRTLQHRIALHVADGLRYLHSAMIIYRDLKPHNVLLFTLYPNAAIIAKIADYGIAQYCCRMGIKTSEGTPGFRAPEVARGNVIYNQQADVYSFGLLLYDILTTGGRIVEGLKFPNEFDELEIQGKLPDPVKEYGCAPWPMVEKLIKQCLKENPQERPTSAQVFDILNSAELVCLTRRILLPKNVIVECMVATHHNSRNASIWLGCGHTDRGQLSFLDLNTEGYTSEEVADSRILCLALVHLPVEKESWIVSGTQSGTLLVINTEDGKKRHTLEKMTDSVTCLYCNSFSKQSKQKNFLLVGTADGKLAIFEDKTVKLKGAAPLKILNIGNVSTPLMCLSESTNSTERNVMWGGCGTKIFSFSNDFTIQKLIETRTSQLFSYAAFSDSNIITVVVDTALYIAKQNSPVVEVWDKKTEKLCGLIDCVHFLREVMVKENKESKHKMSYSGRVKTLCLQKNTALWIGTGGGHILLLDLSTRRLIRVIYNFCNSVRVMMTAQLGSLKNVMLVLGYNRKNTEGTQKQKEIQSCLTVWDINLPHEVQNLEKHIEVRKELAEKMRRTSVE
T1 sequence (Q5S007 whole entry): as above

Structure (SMILES)	pIC50 [1]	pIC50 (LRRK2 wild type enzyme)
C[C@@H]1C[C@H](n2c(C3CN(C(=O)C4CC4)C3)nc3cnc4ccc(C#N)cc4c32)CCO1 [Compound 68, 2-(1-cyclopropanecarbonylazetidin-3-yl)-1-[(2R,4R)-2-methyloxan-4-yl]-1H-imidazo[4,5-c]quinoline-8-carbonitrile]	5.94	8.13
CC1CC(n2c(CC3CNC3)nc3cnc4ccc(C#N)cc4c32)CCO1 (stereo not shown) [Compound 70, 2-[(azetidin-3-yl)methyl]-1-(2-methyloxan-4-yl)-1H-imidazo[4,5-c]quinoline-8-carbonitrile]	5.43	8.04
C[C@@H]1C[C@H](n2c([C@@H]3CCC(=O)N3)nc3cnc4ccc(C#N)cc4c32)CCO1 [Compound 71, 1-[(2R,4R)-2-methyloxan-4-yl]-2-[(2S)-5-oxopyrrolidin-2-yl]-1H-imidazo[4,5-c]quinoline-8-carbonitrile]	5.32	8.26
C[C@@H]1C[C@H](n2c([C@H]3CNC(=O)C3)nc3cnc4ccc(C#N)cc4c32)CCO1 [Compound 72, 1-[(2R,4R)-2-methyloxan-4-yl]-2-[(3R)-5-oxopyrrolidin-3-yl]-1H-imidazo[4,5-c]quinoline-8-carbonitrile]	5.44	8.73
C[C@@H]1C[C@H](n2c(CC3CN(C(=O)OC(C)(C)C)C3)nc3cnc4ccc(C#N)cc4c32)CCO1 [Compound 73, tert-butyl 3-({8-cyano-1-[(2R,4R)-2-methyloxan-4-yl]-1H-imidazo[4,5-c]quinolin-2-yl}methyl)azetidine-1-carboxylate]	6.60	8.41
C[C@@H]1C[C@H](n2c(CS(=O)(=O)C3CC3)nc3cnc4ccc(C#N)cc4c32)CCO1 [Compound 74, 2-[(cyclopropanesulfonyl)methyl]-1-[(2R,4R)-2-methyloxan-4-yl]-1H-imidazo[4,5-c]quinoline-8-carbonitrile]	6.37	8.23
C[C@@H]1C[C@H](n2c(CN3CCCS3(=O)=O)nc3cnc4ccc(C#N)cc4c32)CCO1 [Compound 75, 2-[(1,1-dioxo-126,2-thiazolidin-2-yl)methyl]-1-[(2R,4R)-2-methyloxan-4-yl]-1H-imidazo[4,5-c]quinoline-8-carbonitrile]	6.23	7.95
C[C@@H]1C[C@H](n2c(CN3CCC(C(=O)O)C3)nc3cnc4ccc(C#N)cc4c32)CCO1 (stereo partly drawn) [Compound 77, 1-({8-cyano-1-[(2R,4R)-2-methyloxan-4-yl]-1H-imidazo[4,5-c]quinolin-2-yl}methyl)pyrrolidine-3-carboxylic acid]	5.29	7.47
C[C@@H]1C[C@H](n2c(CN3CCOCC3=O)nc3cnc4ccc(C#N)cc4c32)CCO1 [Compound 78, 1-[(2R,4R)-2-methyloxan-4-yl]-2-[(3-oxomorpholin-4-yl)methyl]-1H-imidazo[4,5-c]quinoline-8-carbonitrile]	6.00	7.91
C[C@@H]1C[C@H](n2c(CN3CCCCC3=O)nc3cnc4ccc(C#N)cc4c32)CCO1 [Compound 79, 1-[(2R,4R)-2-methyloxan-4-yl]-2-[(2-oxopiperidin-1-yl)methyl]-1H-imidazo[4,5-c]quinoline-8-carbonitrile]	6.09	7.97
C[C@@H]1C[C@H](n2c(CN3CCCC3=O)nc3cnc4ccc(C#N)cc4c32)CCO1 [Compound 80, 1-[(2R,4R)-2-methyloxan-4-yl]-2-[(2-oxopyrrolidin-1-yl)methyl]-1H-imidazo[4,5-c]quinoline-8-carbonitrile]	6.35	8.37
C[C@@H]1C[C@H](n2c(CC(=O)N(C)CC(F)(F)F)nc3cnc4ccc(C#N)cc4c32)CCO1 [Compound 81, 2-{8-cyano-1-[(2R,4R)-2-methyloxan-4-yl]-1H-imidazo[4,5-c]quinolin-2-yl}-N-methyl-N-(2,2,2-trifluoroethyl)acetamide]	6.14	7.98
CNC(=O)Cc1nc2cnc3ccc(C#N)cc3c2n1[C@@H]1CCO[C@H](C)C1 [Compound 82, 2-{8-cyano-1-[(2R,4R)-2-methyloxan-4-yl]-1H-imidazo[4,5-c]quinolin-2-yl}-N-methylacetamide]	7.09	9.08
C[C@@H]1C[C@H](n2c(CC(=O)NCc3cccnc3)nc3cnc4ccc(C#N)cc4c32)CCO1 [Compound 83, 2-{8-cyano-1-[(2R,4R)-2-methyloxan-4-yl]-1H-imidazo[4,5-c]quinolin-2-yl}-N-[(pyridin-3-yl)methyl]acetamide]	7.60	9.48
C[C@@H]1C[C@H](n2c(CC(=O)NC3CCC3)nc3cnc4ccc(C#N)cc4c32)CCO1 [Compound 84, 2-{8-cyano-1-[(2R,4R)-2-methyloxan-4-yl]-1H-imidazo[4,5-c]quinolin-2-yl}-N-cyclobutylacetamide]	7.58	9.36
C[C@@H]1C[C@H](n2c(CC(=O)N3CCCC3)nc3cnc4ccc(C#N)cc4c32)CCO1 [Compound 85, 1-[(2R,4R)-2-methyloxan-4-yl]-2-[2-oxo-2-(pyrrolidin-1-yl)ethyl]-1H-imidazo[4,5-c]quinoline-8-carbonitrile]	6.38	8.29
C[C@@H]1C[C@H](n2c(CC(=O)NCc3ccccn3)nc3cnc4ccc(C#N)cc4c32)CCO1 [Compound 86, 2-{8-cyano-1-[(2R,4R)-2-methyloxan-4-yl]-1H-imidazo[4,5-c]quinolin-2-yl}-N-[(pyridin-2-yl)methyl]acetamide]	8.15	9.37
C[C@@H]1C[C@H](n2c(CC(=O)NCc3cnn(C)c3)nc3cnc4ccc(C#N)cc4c32)CCO1 [Compound 87, 2-{8-cyano-1-[(2R,4R)-2-methyloxan-4-yl]-1H-imidazo[4,5-c]quinolin-2-yl}-N-[(1-methyl-1H-pyrazol-4-yl)methyl]acetamide]	7.56	9.33
C[C@@H]1C[C@H](n2c(CC(=O)Nc3cnn(C)c3)nc3cnc4ccc(C#N)cc4c32)CCO1 [Compound 88, 2-{8-cyano-1-[(2R,4R)-2-methyloxan-4-yl]-1H-imidazo[4,5-c]quinolin-2-yl}-N-(1-methyl-1H-pyrazol-4-yl)acetamide]	7.61	9.34
C[C@@H]1C[C@H](n2c(CC(=O)NCC3CCC3)nc3cnc4ccc(C#N)cc4c32)CCO1 [Compound 89, 2-{8-cyano-1-[(2R,4R)-2-methyloxan-4-yl]-1H-imidazo[4,5-c]quinolin-2-yl}-N-(cyclobutylmethyl)acetamide]	7.47	9.23
C[C@@H]1C[C@H](n2c(C3CC(=O)N(c4ccn(C)n4)C3)nc3cnc4ccc(C#N)cc4c32)CCO1 (stereo partly drawn) [Compound 100, 2-[1-(1-methyl-1H-pyrazol-3-yl)-5-oxopyrrolidin-3-yl]-1-[(2R,4R)-2-methyloxan-4-yl]-1H-imidazo[4,5-c]quinoline-8-carbonitrile]	6.84	8.67
C[C@@H]1C[C@H](n2c(C3CC(=O)N(c4ccnn4C)C3)nc3cnc4ccc(C#N)cc4c32)CCO1 (stereo partly drawn) [Compound 103, 2-[1-(1-methyl-1H-pyrazol-5-yl)-5-oxopyrrolidin-3-yl]-1-[(2R,4R)-2-methyloxan-4-yl]-1H-imidazo[4,5-c]quinoline-8-carbonitrile]	6.40	8.70
C[C@@H]1C[C@H](n2c(CNc3ncccn3)nc3cnc4ccc(C#N)cc4c32)CCO1 [Compound 105, 1-[(2R,4R)-2-methyloxan-4-yl]-2-{[(pyrimidin-2-yl)amino]methyl}-1H-imidazo[4,5-c]quinoline-8-carbonitrile]	6.62	8.46
C[C@@H]1C[C@H](n2c(CC(=O)NCC3CC3)nc3cnc4ccc(Cl)cc4c32)CCO1 [Compound 107, 2-{8-chloro-1-[(2R,4R)-2-methyloxan-4-yl]-1H-imidazo[4,5-c]quinolin-2-yl}-N-(cyclopropylmethyl)acetamide]	7.96	9.45
C[C@@H]1C[C@H](n2c(C3CC(=O)N(c4cnn(C)c4)C3)nc3cnc4ccc(Cl)cc4c32)CCO1 (stereo partly drawn) [Compound 108, 4-{8-chloro-1-[(2R,4R)-2-methyloxan-4-yl]-1H-imidazo[4,5-c]quinolin-2-yl}-1-(1-methyl-1H-pyrazol-4-yl)pyrrolidin-2-one]	7.37	9.01
N#Cc1ccc2ncc3nc(CC(=O)NCC4CC4)n(C4CCCC4)c3c2c1 [Compound 109, 2-{8-cyano-1-cyclopentyl-1H-imidazo[4,5-c]quinolin-2-yl}-N— (cyclopropylmethyl)acetamide]	6.76	8.74
CC(=O)N1CCC(c2nc3cnc4ccc(C#N)cc4c3n2[C@@H]2CCO[C@H](C)C2)CC1 [Compound 116, 2-(1-acetylpiperidin-4-yl)-1-[(2R,4R)-2-methyloxan-4-yl]-1H-imidazo[4,5-c]quinoline-8-carbonitrile]	6.46	8.90
C[C@@H]1C[C@H](n2c(C3CCN(C(=O)c4cccnn4)CC3)nc3cnc4ccc(C#N)cc4c32)CCO1 [Compound 117, 1-[(2R,4R)-2-methyloxan-4-yl]-2-[1-(pyridazine-3-carbonyl)piperidin-4-yl]-1H-imidazo[4,5-c]quinoline-8-carbonitrile]	6.30	8.91
C[C@@H]1C[C@H](n2c(C3CCN(C(=O)c4cnn(C)c4)CC3)nc3cnc4ccc(C#N)cc4c32)CCO1 [Compound 118, 2-[1-(1-methyl-1H-pyrazole-4-carbonyl)piperidin-4-yl]-1-[(2R,4R)-2-methyloxan-4-yl]-1H-imidazo[4,5-c]quinoline-8-carbonitrile]	6.48	9.07
